Measured values as given in patent US20120010075A1 (priority 2009, published 2012).
Where two headings read alike, the source gives them in different places.

Assays:
[1] = test system: Leptosphaeria nodorum (LEPTNO); assay: In vitro fungitoxicity of hydrazones with and without copper towards Leptosphaeria nodorum (Example 26); type: cell-based; details: 72 h at 25° C.; for inhibition of growth at 0.05 µg/mL: Parastagonospora nodorum, 72 h, copper-minus medium, read-out: LEPTNO % Inhn. Minus Copper Observed
Phytophthora infestans = type: in vivo, Phytophthora infestans on tomato; details: applied 24 h before inoculation, assessed 7 days after inoculation
Phytophthora capsici = assay: In vitro fungitoxicity of hydrazones with and without copper towards Phytophthora capsici (Example 28, Table 3); type: cell-based; details: 0.050 μg/mL, 48 h; for % Inhn Plus copper Observed: copper-plus AS medium (CuCl2, 50 μM); for inhibition of growth at 0.05 µg/mL: Phytophthora capsici, copper-minus AS medium, read-out: % Inhn Minus copper Observed
Ustilago maydis = assay: In vitro fungitoxicity of hydrazones with and without copper towards Ustilago maydis (Example 29, Table 4); type: cell-based; details: 1 μg/mL, 48 h; for % Inhn. Plus copper Observed: copper-plus medium (CuCl2, 10 μM); for inhibition of growth at 1 µg/mL: Mycosarcoma maydis, copper-minus medium, read-out: % Inhn. Minus copper Observed
[2] = test system: Septoria tritici isolate USA-184; assay: In vitro fungitoxicity of hydrazones with and without copper towards Septoria tritici (Example 30, Table 5); type: cell-based; details: Zymoseptoria tritici, 0.05 μg/mL
[3] = test system: Leptosphaeria nodorum (LEPTNO); assay: Isolated metal-hydrazone complexes versus parent hydrazones, in vitro, Leptosphaeria nodorum (Example 31, Table 7); type: cell-based; details: Parastagonospora nodorum; 0.1 μg/mL; copper-minus medium; 72 h
[4] = compound 0.05 μg/mL, copper-plus medium (CuCl2.2H2O)
[5] = hydrazone 50 ppm + 50 μM CuCl2.2H2O, tomato
[6] = Colby formula, CuCl2, read-out: % Inhibition Plus copper Predicted
[7] = copper-minus medium, 90 h, read-out: % Inhibition Minus copper Observed
[8] = copper-plus medium CuCl2, 90 h, read-out: % Inhibition Plus copper Observed
[9] = test compound Concn. 0.05 μg/mL
[10] = copper-plus medium (CuCl2 10 μM), test compound Concn. 0.05 μg/mL
[11] = hydrazone 50 ppm with 50 μM CuCl2.2H2O, tomato late blight

Structure (SMILES): O=C(N/N=C/c1cc(Cl)ccc1O)c1ccccc1 [Example 20]
- inhibition of growth at 0.05 µg/mL ([1]; compound 0.05 μg/mL): 2.8%
- LEPTNO % Inhn. Plus Copper Observed [1, 4]: 96.5%
- TLB % Control (Phytophthora infestans; [5]): 96.5%
- % Inhn Plus copper Observed (Phytophthora capsici): 90.4%
- inhibition of growth at 0.05 µg/mL (Phytophthora capsici): 2.1%
- % Inhn. Plus copper Observed (Ustilago maydis): 91.0%
- inhibition of growth at 1 µg/mL (Ustilago maydis): 1.2%
- inhibition at 0.05 µg/mL [2, 6]: 0%
- inhibition at 0.05 µg/mL [2, 7]: 0%
- inhibition at 0.05 µg/mL [2, 8]: 95.3%
- inhibition at 0.1 µg/mL [3]: 14.7%

Structure (SMILES): C/C(=N\NC(=O)c1ccccc1)c1cc(Cl)cc(Cl)c1O [Example 60]
- inhibition of growth at 0.05 µg/mL ([1]; compound 0.05 μg/mL): 7.3%
- LEPTNO % Inhn. Plus Copper Observed [1, 4]: 97.5%
- TLB % Control (Phytophthora infestans; [5]): 85.0%
- % Inhn Plus copper Observed (Phytophthora capsici): 76.4%
- inhibition of growth at 0.05 µg/mL (Phytophthora capsici): 4.1%
- % Inhn. Plus copper Observed (Ustilago maydis): 93.5%
- inhibition of growth at 1 µg/mL (Ustilago maydis): 0%
- inhibition at 0.05 µg/mL [2, 6]: 20.6%
- inhibition at 0.05 µg/mL [2, 7]: 20.6%
- inhibition at 0.05 µg/mL [2, 8]: 94.8%
- inhibition at 0.1 µg/mL [3]: 23.3%

Structure (SMILES): O=C(N/N=C/c1cc(C(F)(F)F)ccc1O)c1ccccc1 [Example 277]
- inhibition of growth at 0.05 µg/mL ([1]; compound 0.05 μg/mL): 1.9%
- LEPTNO % Inhn. Plus Copper Observed [1, 4]: 97.5%
- TLB % Control (Phytophthora infestans; [5]): 86.4%
- % Inhn Plus copper Observed (Phytophthora capsici): 88.2%
- inhibition of growth at 0.05 µg/mL (Phytophthora capsici): 0%
- % Inhn. Plus copper Observed (Ustilago maydis): 83.5%
- inhibition of growth at 1 µg/mL (Ustilago maydis): 1.7%
- inhibition at 0.05 µg/mL [2, 6]: 3.6%
- inhibition at 0.05 µg/mL [2, 7]: 3.6%
- inhibition at 0.05 µg/mL [2, 8]: 88%
- inhibition at 0.1 µg/mL [3]: 0.6%
- melting point: 214 to 217 °C

Structure (SMILES): COc1cccc(/C(C)=N/NC(=O)c2ccccc2)c1O [Example 299]
- inhibition of growth at 0.05 µg/mL [1, 9]: 0%
- LEPTNO % Inhn. Plus Copper Observed [1, 10]: 97.9%
- TLB % Control (Phytophthora infestans; [11]): 74.0%
- inhibition at 0.1 µg/mL [3]: 18.6%
- melting point: 146 to 148 °C

Structure (SMILES): COc1cccc(/C(C)=N/NC(=O)c2ccccc2C)c1O [Example 300]
- inhibition of growth at 0.05 µg/mL [1, 9]: 0%
- LEPTNO % Inhn. Plus Copper Observed [1, 10]: 97.2%
- TLB % Control (Phytophthora infestans; [11]): 70.0%
- inhibition at 0.1 µg/mL [3]: 2.5%
- melting point: 208 to 209 °C

Structure (SMILES): COc1cccc(/C(C)=N/NC(=O)c2cccc(C)c2)c1O [Example 301]
- inhibition of growth at 0.05 µg/mL [1, 9]: 0%
- LEPTNO % Inhn. Plus Copper Observed [1, 10]: 97.9%
- TLB % Control (Phytophthora infestans; [11]): 82.0%
- inhibition at 0.1 µg/mL [3]: 3.5%
- melting point: 121 to 123 °C

Structure (SMILES): COc1cccc(/C(C)=N/NC(=O)c2ccc(C)cc2)c1O [Example 302]
- inhibition of growth at 0.05 µg/mL [1, 9]: 0%
- LEPTNO % Inhn. Plus Copper Observed [1, 10]: 96.4%
- TLB % Control (Phytophthora infestans; [11]): 82.0%
- inhibition at 0.1 µg/mL [3]: 22.9%
- melting point: 146 to 148 °C

Structure (SMILES): COc1cccc(/C(C)=N/NC(=O)c2ccccc2Cl)c1O [Example 303]
- inhibition of growth at 0.05 µg/mL [1, 9]: 0%
- LEPTNO % Inhn. Plus Copper Observed [1, 10]: 98.0%
- TLB % Control (Phytophthora infestans; [11]): 45.0%
- inhibition at 0.1 µg/mL [3]: 10.6%
- melting point: 233 to 234 °C

Structure (SMILES): COc1cccc(/C(C)=N/NC(=O)c2cccc(Cl)c2)c1O [Example 304]
- inhibition of growth at 0.05 µg/mL [1, 9]: 0%
- LEPTNO % Inhn. Plus Copper Observed [1, 10]: 97.9%
- TLB % Control (Phytophthora infestans; [11]): 77.0%
- inhibition at 0.1 µg/mL [3]: 13.3%
- melting point: 146 to 148 °C

Structure (SMILES): COc1cccc(/C(C)=N/NC(=O)c2ccc(Cl)cc2)c1O [Example 305]
- inhibition of growth at 0.05 µg/mL [1, 9]: 0.5%
- LEPTNO % Inhn. Plus Copper Observed [1, 10]: 98.3%
- TLB % Control (Phytophthora infestans; [11]): 61.0%
- inhibition at 0.1 µg/mL [3]: 27.1%
- melting point: 168 to 170 °C

Structure (SMILES): O=C(N/N=C/c1cc(Cl)cc(C(F)(F)F)c1O)c1ccccc1 [Example 320]
- inhibition of growth at 0.05 µg/mL [1, 9]: 17.1%
- LEPTNO % Inhn. Plus Copper Observed [1, 10]: 96.4%
- TLB % Control (Phytophthora infestans; [11]): 100.0%
- % Inhn Plus copper Observed (Phytophthora capsici): 81.4%
- inhibition of growth at 0.05 µg/mL (Phytophthora capsici): 2.9%
- % Inhn. Plus copper Observed (Ustilago maydis): 95.2%
- inhibition of growth at 1 µg/mL (Ustilago maydis): 0%
- inhibition at 0.05 µg/mL [2, 6]: 9.5%
- inhibition at 0.05 µg/mL [2, 7]: 9.5%
- inhibition at 0.05 µg/mL [2, 8]: 92.1%
- inhibition at 0.1 µg/mL [3]: 22.1%
- melting point: 225 to 226 °C

Structure (SMILES): O=C(N/N=C/c1cc(C(F)(F)F)cc(C(F)(F)F)c1O)c1ccc(Cl)cc1 [Example 337]
- inhibition of growth at 0.05 µg/mL [1, 9]: 22.4%
- LEPTNO % Inhn. Plus Copper Observed [1, 10]: 98.0%
- TLB % Control (Phytophthora infestans; [11]): 97.0%
- % Inhn Plus copper Observed (Phytophthora capsici): 42.1%
- inhibition of growth at 0.05 µg/mL (Phytophthora capsici): 4.7%
- % Inhn. Plus copper Observed (Ustilago maydis): 97.8%
- inhibition of growth at 1 µg/mL (Ustilago maydis): 22%
- inhibition at 0.05 µg/mL [2, 6]: 46.8%
- inhibition at 0.05 µg/mL [2, 7]: 46.8%
- inhibition at 0.05 µg/mL [2, 8]: 97.1%
- inhibition at 0.1 µg/mL [3]: 39.9%
- melting point: 233 to 236 °C

Structure (SMILES): O=C(N/N=C/c1cccc(C(F)(F)F)c1O)c1ccc(Cl)cc1 [Example 348]
- inhibition of growth at 0.05 µg/mL [1, 9]: 16.3%
- LEPTNO % Inhn. Plus Copper Observed [1, 10]: 98.3%
- TLB % Control (Phytophthora infestans; [11]): 100.0%
- inhibition at 0.1 µg/mL [3]: 23.9%
- melting point: 215 to 216 °C

Structure (SMILES): O=C(N/N=C/c1ccc(Cl)c(Cl)c1O)c1ccc(Cl)cc1 [Example 359]
- inhibition of growth at 0.05 µg/mL [1, 9]: 41.4%
- LEPTNO % Inhn. Plus Copper Observed [1, 10]: 97.3%
- TLB % Control (Phytophthora infestans; [11]): 92.0%
- inhibition at 0.1 µg/mL [3]: 24.1%
- melting point: 260 to 262 °C

Structure (SMILES): O=C(N/N=C/c1c(Cl)ccc(Cl)c1O)c1ccc(Cl)cc1 [Example 370]
- inhibition of growth at 0.05 µg/mL [1, 9]: 3.5%
- LEPTNO % Inhn. Plus Copper Observed [1, 10]: 97.5%
- TLB % Control (Phytophthora infestans; [11]): 91.0%
- inhibition at 0.1 µg/mL [3]: 23.1%
- melting point: 271 to 273 °C

Structure (SMILES): O=C(N/N=C/c1cc(Cl)cc(C(F)(F)F)c1O)c1ccc(Cl)cc1 [Example 381]
- inhibition of growth at 0.05 µg/mL [1, 9]: 31.8%
- LEPTNO % Inhn. Plus Copper Observed [1, 10]: 98.6%
- TLB % Control (Phytophthora infestans; [11]): 100.0%
- inhibition at 0.1 µg/mL [3]: 43.9%
- melting point: 232 to 234 °C

Structure (SMILES): O=C(N/N=C/c1c(O)cccc1Cl)c1ccc(Cl)cc1 [Example 403]
- inhibition of growth at 0.05 µg/mL [1, 9]: 0%
- LEPTNO % Inhn. Plus Copper Observed [1, 10]: 97.3%
- TLB % Control (Phytophthora infestans; [11]): 97.0%
- inhibition at 0.1 µg/mL [3]: 12.1%
- melting point: 273 to 277 °C

Structure (SMILES): Cc1ccc(C(=O)N/N=C/c2cc(Br)cc(F)c2O)cc1 [Example 411]
- inhibition of growth at 0.05 µg/mL [1, 9]: 8.2%
- LEPTNO % Inhn. Plus Copper Observed [1, 10]: 97.9%
- TLB % Control (Phytophthora infestans; [11]): 85.0%
- inhibition at 0.1 µg/mL [3]: 32.1%
- melting point: 228 to 229 °C

Structure (SMILES): O=C(N/N=C/c1cc(Br)cc(F)c1O)c1ccc(C(F)(F)F)cc1 [Example 412]
- inhibition of growth at 0.05 µg/mL [1, 9]: 7.7%
- LEPTNO % Inhn. Plus Copper Observed [1, 10]: 97.8%
- TLB % Control (Phytophthora infestans; [11]): 100.0%
- inhibition at 0.1 µg/mL [3]: 40.4%
- melting point: 240 to 241 °C

Structure (SMILES): O=C(N/N=C/c1cccc(Cl)c1O)c1ccc(Cl)cc1 [Example 428]
- inhibition of growth at 0.05 µg/mL [1, 9]: 44.1%
- LEPTNO % Inhn. Plus Copper Observed [1, 10]: 98.4%
- TLB % Control (Phytophthora infestans; [11]): 97.0%
- inhibition at 0.1 µg/mL [3]: 29.9%
- melting point: 217 to 219 °C

Structure (SMILES): O=C(N/N=C/c1cc(C(F)(F)F)ccc1O)c1ccc(Cl)cc1 [Example 440]
- inhibition of growth at 0.05 µg/mL [1, 9]: 2.9%
- LEPTNO % Inhn. Plus Copper Observed [1, 10]: 100.0%
- TLB % Control (Phytophthora infestans; [11]): 98.0%
- inhibition at 0.1 µg/mL [3]: 23.8%
- melting point: 252 to 254 °C

Structure (SMILES): O=C(N/N=C/c1c(C(F)(F)F)ccc(Cl)c1O)c1ccc(Cl)cc1 [Example 452]
- inhibition of growth at 0.05 µg/mL [1, 9]: 12.9%
- LEPTNO % Inhn. Plus Copper Observed [1, 10]: 100.0%
- TLB % Control (Phytophthora infestans; [11]): 100.0%
- inhibition at 0.1 µg/mL [3]: 19.3%
- melting point: 236 to 238 °C
